“And” between values parts separate entries of the source, which are not always exact repeats. Equal values may be shown once.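 Method: 48-hour compound exposure of cells in 96-well plates, five concentrations, linear interpolation of endpoints. Here, GI50 denotes the concentration required for 50% inhibition of growth. TGI marks complete inhibition of growth.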
How the values were obtained:
Assay in all cases: DTP human tumour cell line panel, 48 h
M14 melanoma = test system: M14 melanoma
IGROV1 ovarian = test system: IGROV1 ovarian
SK-MEL-2 melanoma = test system: SK-MEL-2 melanoma
SK-MEL-28 melanoma = test system: SK-MEL-28 melanoma
RPMI-8226 leukemia = test system: RPMI-8226 leukemia
OVCAR-4 ovarian = test system: OVCAR-4 ovarian
BT-549 breast = test system: BT-549 breast
DLD-1 colon = test system: DLD-1 colon
DMS 273 small cell lung = test system: DMS 273 small cell lung
HOP-18 NSCLC = test system: HOP-18 NSCLC
XF 498 CNS = test system: XF 498 CNS

| SMILES | GI50 (M14 melanoma) | TGI (M14 melanoma) | GI50 (IGROV1 ovarian) | TGI (IGROV1 ovarian) | GI50 (SK-MEL-2 melanoma) | TGI (SK-MEL-2 melanoma) | GI50 (SK-MEL-28 melanoma) | TGI (SK-MEL-28 melanoma) | GI50 (RPMI-8226 leukemia) | TGI (RPMI-8226 leukemia) | GI50 (OVCAR-4 ovarian) | TGI (OVCAR-4 ovarian) | GI50 (BT-549 breast) | TGI (BT-549 breast) | TGI (DLD-1 colon) | TGI (DMS 273 small cell lung) | TGI (HOP-18 NSCLC) | TGI (XF 498 CNS) |
| --- | --- | --- | --- | --- | --- | --- | --- | --- | --- | --- | --- | --- | --- | --- | --- | --- | --- | --- |
| O=[N+]([O-])/C(=C/C=C/c1ccccc1)c1ccccc1 | 2020 nM | 5.31 µM | 1920 nM | 4.54 µM | 1670 nM | 3.93 µM | 2.09 µM | 4.23 µM | 0.118 µM | 1.55 µM | 2.47 µM | 7.22 µM | 1.91 µM | 4.1 µM | – | – | – | – |
| COc1cc2c(c(OC)c1OC)-c1ccc(SC)c(=O)cc1C(CC(=O)Oc1ccccc1F)C2 (centres undefined) | – | 0.908 µM | – | > 7.5 µM | – | 0.125 µM | – | > 7.5 µM | – | > 7.5 µM | – | > 7.5 µM | – | – | > 7.5 µM | – | – | – |
| c1ccc2[nH]c(-c3cscn3)nc2c1 | – | > 100 µM | – | > 100 µM | – | > 100 µM | – | > 100 µM | > 100 µM and 31.7 µM | > 100 µM | – | > 100 µM | – | > 100 µM | – | – | – | – |
| CN1CCC(C(=O)Nc2n[nH]c3nnc(-c4ccccc4)cc23)CC1 | > 25000 nM | > 25 µM | > 25000 nM | > 25 µM | > 20100 nM | > 25 µM | > 25 µM | > 25 µM | > 25 µM | > 25 µM | > 25 µM | > 25 µM | > 25 µM | > 25 µM | – | – | – | – |
| CC1(C)O[C@@H](CCl)C[C@@H](C#N)O1 | – | > 100 µM | – | > 100 µM | – | > 100 µM | – | > 100 µM | – | > 100 µM | – | > 100 µM | – | – | > 100 µM | > 100 µM | > 100 µM | – |
| Cc1nc2sc(C(=O)Nc3cccc(Cl)c3)c(N)c2cc1C(O)c1ccccc1 (centres undefined) | 709 nM | > 100 µM | 2270 nM | 17 µM | 2430 nM | 26.5 µM | 3.12 µM | 22.3 µM | 0.848 µM | > 100 µM | 4.64 µM | 31.2 µM | 6.13 µM | 35.6 µM | – | – | – | – |
| Cc1cn([C@H]2CN(O)C[C@@H](CO)O2)c(=O)[nH]c1=O | – | > 100 µM | – | > 100 µM | – | > 100 µM | – | > 100 µM | – | > 100 µM | – | > 100 µM | – | > 100 µM | – | – | – | – |
| CCCC/C=C1/CCC(CN(C)C)C1=O (centres undefined) | – | 3.26 µM | – | 10.1 µM | – | 10.1 µM | – | 3.93 µM | – | 0.897 µM | – | 8.27 µM | – | – | 2.16 µM | 5.76 µM | 5.56 µM | – |
| O=C(CC/C(CC(=O)c1ccc(Cl)cc1)=N\O)Nc1cccc(Cl)c1 | – | > 100 µM | – | > 100 µM | – | > 100 µM | – | > 100 µM | – | > 100 µM | – | > 100 µM | – | – | > 100 µM | > 100 µM | – | > 100 µM |
| Cc1cc(N(CCC#N)CCC#N)ccc1/C=C1N=C(/C=C\c2ccccc2)N(c2ccc(C(=O)O)cc2)C\1=O | – | > 100 µM | – | > 100 µM | – | > 100 µM | – | > 100 µM | – | > 100 µM | – | > 100 µM | – | – | > 100 µM | – | > 100 µM | – |
| CC(=O)O[C@H]1C(=O)[C@@]2(C)C([C@H](OC(=O)c3ccccc3)[C@]3(O)C[C@H](OC(=O)[C@H](O)[C@@H](NC(=O)c4ccc(Cl)cc4)c4ccccc4)C(C)=C1C3(C)C)C1(OC(C)=O)CO[C@@H]1C[C@@H]2O (some centres undefined) | – | 0.733 µM | 13.4 nM | 25 µM and 28.2 µM | – | – | – | 25 µM | – | 11.7 µM | 4.89 µM | 25 µM and 68 µM | – | 0.212 µM | > 100 µM | – | – | 3.73 µM |

Source: PubChem BioAssay (NCI)
